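Exposure lasted 48 hours, with cells grown in 96-well plates and compounds tested at five concentrations. The concentration for 50% growth inhibition is given as GI50. TGI marks complete inhibition of growth.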
Legend:
Test in all cases: NCI tumour cell line growth inhibition, 48 h
[1] = tested on: HOP-62 NSCLC
[2] = tested on: MOLT-4 leukemia
[3] = tested on: NCI/ADR-RES ovarian
[4] = tested on: SNB-75 CNS
[5] = tested on: NCI-H460 lung
[6] = tested on: SN12C renal
[7] = tested on: U251 CNS
[8] = tested on: ACHN renal
[9] = tested on: LOX IMVI melanoma
[10] = tested on: MCF7 breast

Row | SMILES | GI50 [1] [µM] | TGI [1] [µM] | GI50 [2] [µM] | TGI [2] [µM] | GI50 [3] [µM] | TGI [3] [µM] | GI50 [4] [µM] | TGI [4] [µM] | GI50 [5] [µM] | TGI [5] [µM] | GI50 [6] [µM] | TGI [6] [µM] | GI50 [7] [µM] | TGI [7] [µM] | GI50 [8] [µM] | TGI [8] [µM] | GI50 [9] [µM] | TGI [9] [µM] | GI50 [10] [µM] | TGI [10] [µM]
1 | O=c1oc2ccc(F)cc2c(=O)n1-c1ccc(Cl)cc1F | 1.57 | 6.53 | 2 | 5.27 | 1.18 | 9.31 | 0.375 | 2.65 | 0.619 | 12.2 | 0.495 | 6.92 | 0.868 | > 59.8 | 0.7 | 11.8 | 0.527 | 6.97 | 1.95 | > 29
2 | COc1cc(C(=O)N2CCN(c3ccccc3OC)CC2)c(N)cc1OCc1ccccc1 | 34.4 | > 100 | 21.5 | 53.6 | 33.5 | > 100 | 42.6 | > 100 | 33.1 | > 100 | 30.5 | > 100 | 41.8 | > 100 | 32.4 | > 100 | 27.2 | 71.3 | 29.3 | > 100
3 | Oc1ccc2ccccc2c1C(c1ccc(Cl)cc1)c1c(O)ccc2ccccc12 | – | 16 | – | 17.5 | – | 9.46 | – | 10.8 | – | 11.3 | – | 9.72 | – | 12.9 | – | 15.4 | – | 8.11 | – | 11.5
4 | N#Cc1c(-c2ccc(Cl)cc2)c(-c2ccc(Cl)cc2)nn(CCOC(=O)CCC(=O)O)c1=O | – | 34.8 | – | 41.3 | – | > 12.9 | – | > 75.7 | – | 32.5 | – | > 60 | – | 40.3 | – | > 100 | – | > 84.3 | – | > 62.3
5 | Cc1ccc(/C=C/C(=O)c2ccc(N)cc2)c(C)c1 | 17 | 38 | 1.28 | 3.69 | 6.65 | > 100 | 2.01 | 7.45 | 14.7 | 33.8 | 1.95 | 4.2 | 6.5 | 19.3 | 1.77 | 3.2 | 0.321 | 1.18 | 8.29 | 37.2
6 | COc1ccc2c(c1)C(=O)/C(=C/c1ccc([N+](=O)[O-])s1)O2 | 1.07 | 3.47 | 0.867 | > 33.7 | 0.873 | > 100 | 0.627 | 2.47 | 0.411 | 1.64 | 0.483 | 2.32 | 0.287 | 0.943 | 0.263 | 0.722 | 0.256 | 0.637 | 0.344 | > 100
7 | O=C(N/N=c1/ccoc2cccnc12)N1CCN(c2ncccn2)CC1 | 0.0436 | 7.42 | < 0.0129 | 8.06 | < 0.0193 | 12.3 | 1.63 | 9.33 | 0.0896 | 11.1 | 1.57 | 14.8 | 0.0777 | 9.15 | 0.0145 | 13.2 | < 0.0158 | 5.12 | < 0.01 | 11.9
8 | CCCCCCCCCCCCCCCCOC(=O)c1c(C)[nH]c(/C=C2\N=C(c3ccc[nH]3)C=C2OC)c1C | 2.89 | 12.8 | > 100 | > 100 | 0.735 | 19.9 | 2.47 | 7.17 | 0.0429 | > 100 | 1.64 | 23.7 | 0.638 | 7.04 | 1.65 | 14.9 | 0.0346 | 0.144 | 0.0686 | > 100
9 | Cc1cc(O)ccc1O | 34.8 | > 100 | 5.24 | 37.7 | 23.5 | > 100 | 24.1 | > 100 | 45.4 | > 100 | 14.4 | 27.8 | 32.8 | > 100 | 15.7 | 29.1 | 13.7 | 27.4 | 19 | 69.8
10 | Cn1c(=O)c2[nH]c(C3CC(=O)CC(c4nc5c([nH]4)c(=O)n(C)c(=O)n5C)N3)nc2n(C)c1=O (stereo not given) | – | > 100 | – | > 100 | – | > 100 | – | > 100 | – | > 100 | – | > 100 | – | > 100 | – | > 100 | – | > 100 | – | > 100
11 | CN1C(=O)c2cc([N+](=O)[O-])ccc2[C@H]2C(=O)c3cc4c(cc3[C@H]21)OCO4 | 0.158 | > 100 | 0.145 | > 100 | 0.0684 | 15.2 | 0.12 | > 100 | 0.0285 | 0.195 | 0.0386 | 0.838 | 0.0191 | 0.162 | 0.0134 | 0.0463 | 0.0161 | 0.155 | 0.118 | 0.451
12 | c1ccc2c(-c3nc4ccccc4[nH]3)cccc2c1 | 5.35 | 30.3 | 2.9 | 83.8 | 1.8 | > 100 | 2.35 | 13.5 | 3.17 | 15.8 | 5.03 | > 100 | 3.72 | 26.3 | 7.97 | > 100 | 7.11 | > 100 | 2.94 | 37.9
